One assay deals with APEC O1. In words: MIC and MBC determination in M63 media. Type of assay: cell-based. To be noted: Escherichia coli.
In a further assay the test system is APEC O2. In words: MIC and MBC determination in M63 media. Type of assay: cell-based. To be noted: Escherichia coli.
The test system of another assay is APEC O8. Put plainly: MIC and MBC determination in M63 media. The format is cell-based. To be noted: Escherichia coli.
In a further assay the test system is APEC O15. In words: MIC and MBC determination in M63 media. Type of assay: cell-based. To be noted: Escherichia coli.
The subject of a further assay is APEC O18. In words: MIC and MBC determination in M63 media. To be noted: Escherichia coli. Type of assay: cell-based.
For the next assay, the system named is APEC O115. In words: MIC and MBC determination in M63 media. To be noted: Escherichia coli. Type of assay: cell-based.
Another assay concerns APEC O1-63. In words: MIC and MBC determination in M63 media. As to conditions: Escherichia coli; APEC O1-63, M63 media. Type of assay: cell-based.
For a further assay, the system named is APEC O2-211. Put plainly: MIC and MBC determination in M63 media. The format is cell-based. As to conditions: Escherichia coli; APEC O2-211, M63 media.
The subject of assay [1] is E. coli Nissle 1917 and E. coli G58-1. In words: Effect against beneficial microbes. Type of assay: cell-based, Escherichia coli. To be noted: 100 µM. The procedure:
SMs were screened against different beneficial microbes to determine their specificity as described previously. SMs were added at 100 µM to 100 µL of 0.05 OD600 adjusted bacterial cultures in specific growth media in 96-well plate, and plate was incubated under indicated conditions. The specific growth media and conditions required for beneficial microbes limited the use of minimal media. Following incubation, endpoint OD600 was measured and cultures from the wells with non-elevated OD600 were plated on selective agar plates to determine the bactericidal effect.

Assay [2] concerns biofilm embedded APEC O78. In words: MBEC High-throughput (HTP) assay. Type of assay: cell-based, Escherichia coli. As to conditions: 18 h challenge in M63 media. As to the method:
The effect of cidal SMs against biofilm embedded APEC was determined using MBEC High-throughput (HTP) assay (Innovotech Inc., AB, Canada)[22]. Briefly, 150 μL of 0.05 OD600 adjusted APEC O78 culture was aliquoted into each well of the MBEC device containing polystyrene pegs and incubated at 37 °C for 36 h in LB media under stationary condition. […] The plate was incubated in the dark for 18 h at 37 °C with rotation at 110 rpm. The DMSO (1%) and […] media were used as positive and negative controls, respectively. Following incubation, MIC of SMs in challenged plate was recorded. The SMs exposed pegs were then transferred to a new 96-well plate containing PBS and sonicated for 30 mins (Aquasonic ultrasonic cleaner, VWR) to disrupt the biofilm. The sonicated suspensions were ten-fold serially diluted and plated on LB agar plate. Biofilm embedded APEC bacteria were enumerated and minimum biofilm eradication concentration (MBEC) of SMs were determined as described previously. Two independent experiments were conducted.

In another assay the test system is APEC O78. Put plainly: Bacterial cytological profiling by confocal microscopy. Type of assay: cell-based, Escherichia coli. As to conditions: 2X MBC, 2 h. The procedure: Confocal microscopy was used for bacterial cytological profiling (BCP) to identify the cellular pathways targeted by SMs as described previously. […] After incubation, treated cultures were centrifuged, washed, and resuspended in 100 µL PBS. FM4-64 (#T13320 Molecular Probes/Invitrogen) (1 µg/mL) and SYTO-9 (#S34854 Molecular Probes/Invitrogen) (5 µM) were added to the bacterial cultures and incubated for 45 mins at room temperature with shaking at 150 rpm. Cultures were then centrifuged, washed, and resuspended in PBS to 1/10th volume of the original cultures.

In the next assay the test system is E. coli BW25113. Details: method as in https://pubchem.ncbi.nlm.nih.gov/bioassay/710. To be noted: 100 µM; ref https://pubchem.ncbi.nlm.nih.gov/bioassay/710; cited from earlier work.

This is an account of results in paper PMC6193035, “Novel small molecules affecting cell membrane as potential therapeutics for avian pathogenic Escherichia coli” (Scientific Reports, 2018).

For orientation: MBC means the lowest tested concentration that kills the bacteria rather than only halting them. High values mean weaker bactericidal potency, low ones greater bactericidal potency. One may read the MIC as the least concentration at which growth counts as inhibited. The low end stands for inhibition by little substance, the high end for a need for much substance.

For the compound `CCN1/C(=C/c2ccc3ccccc3[n+]2CC)C=Cc2ccccc21` [SM9], the MBC was determined as 50 µM against APEC O1; 50 µM against APEC O2; 50 µM against APEC O8; 100 µM against APEC O15; 100 µM against APEC O18; 50 µM against APEC O115. The minimum bactericidal concentration (MBC) was determined as 100 µM with APEC O1-63 and 25 µM with APEC O2-211. For the same compound, the MIC against APEC O1, against APEC O2, against APEC O8, with APEC O15, against APEC O18 and against APEC O115 was 25 µM each time. Further, the values for the MIC against APEC O1-63 and with APEC O2-211 were 50 µM and 25 µM, respectively. In addition, the “effect on E. coli Nissle 1917 and E. coli G58-1” value in assay [1] is on record as “did not have effect”. Also, the “MBEC as multiple of MIC (superscript)” value in [2] is on record as “b (1X MIC)”. Besides, the “cytological profile (FM4-64 / SYTO-9 staining)” value in the assay on APEC O78 was “filamentous or short rods (spheroplasts) morphology (PG synthesis inhibitors)”. The “growth inhibition of E. coli BW25113” value in the assay on E. coli BW25113 is 57%.
